Reference: patent US20230348447A1, “OXAZOLIDINONE COMPOUNDS, LIPOSOME COMPOSITIONS COMPRISING OXAZOLIDINONE COMPOUNDS AND METHOD OF USE THEREOF” (priority 2020, published 2023)
Values after ≈ are worked out from the molar mass of the structure shown. Read-outs that look alike come from different tables or passages of the source.

Columns and labels:
[1] = tested on: M.tb Erdman; assay: Broth microdilution MIC with Alamar blue endpoint (MABA) / OD600; format: cell-based, Mycobacterium tuberculosis
[2] = tested on: M.tb H37Rv; assay: as above; format: cell-based, Mycobacterium tuberculosis
[3] = tested on: African green monkey kidney (Vero; ATCC # CCL81) cells; assay: In vitro cytotoxicity (PrestoBlue cell viability), Vero; format: cell-based
[4] = tested on: human hepatocyte/liver (HepG2; ATCC #HB8065) cells; assay: In vitro cytotoxicity (PrestoBlue cell viability), HepG2; format: cell-based
[5] = tested on: M. Tuberculosis Erdman or H37Rv vs VERO or HepG2 cells; assay: Selectivity Index (mammalian cell IC50 / bacterial MIC); set-up: species or system Mycobacterium tuberculosis
[6] = tested on: mitochondrial protein synthesis (COX-1/SDH-A ratio) in H9C2 rat heart myoblast cells; assay: Mitochondrial protein synthesis inhibition (MitoBiogenesis in-cell ELISA, COX-1/SDH-A); format: cell-based; conditions: 120 h, five days, read-out: MPS IC50
[7] = tested on: MRSA ATCC BAA-1556; assay: MIC against methicillin resistant Staphylococcus aureus (MRSA)
[8] = tested on: MRSA ATCC 43300; assay: as above; conditions: read-out: MRSA MIC, ATCC 43300
[9] = tested on: MRSA 880 NR-49120; assay: as above; conditions: read-out: MRSA MIC, 880 NR-49120
[10] = Liposome loading / encapsulation efficiency (General protocol); conditions: for Maximum encapsulated drug payload: 0.5 M AS; for maximum drug load: no buffer
[11] = Aqueous solubility (visually clear solutions); format: physicochemical; conditions: aqueous, 1 N HCl and/or water added
Method: Working stocks of the compounds were prepared as follows: to an aliquot of a compound (free base) in a powder form 1-1.5 equivalents of HCl in the form of 1 N aqueous solution was added, and the mixture was vortexed until homogeneity. To the resulting cake or syrup, water was added typically to the final 10 mg/ml, and complete dissolution was observed. In some instances, 0.95 equivalents of HCl were added to the free base form of the drug, and 20 mg/ml stock solution was prepared.
Aqueous solubility of the compounds of the present disclosure is illustrated by the following observations of obtaining visually clear solutions: […]

[12] = read-out: MRSA MIC, ATCC BAA-1556
[13] = 1 N TEA-SOS, DL0 750-1500 g/mol PhL
[14] = Mycobacterium tuberculosis, ERDMAN; read-out: Mycobacterium tuberculosis MIC, Erdman
[15] = Mycobacterium tuberculosis, H37RV; as determined in Example 2; read-out: MIC (H37Rv)
[16] = Mycobacterium tuberculosis, H37RV; read-out: Mycobacterium tuberculosis MIC, H37Rv
[17] = Chlorocebus sabaeus, Vero, 72 h; read-out: Cell viability IC50, VERO
[18] = Homo sapiens, HepG2, 72 h; read-out: Cell viability IC50, HepG2

Structure (SMILES) | Selectivity Index (SI) Erd/HepG2 [5] | Selectivity Index (SI) Erd/VERO [5] | IC50 [6] | MIC [7, 12] | MIC [8] | MIC [9] | Maximum encapsulated drug payload ([10]; 0.5 mol% PEG) | Maximum encapsulated drug payload ([10]; 5 mol% PEG) | maximum drug load [10, 13] | MIC [1, 14] | MIC [2, 15] | MIC [2, 16] | IC50 [3, 17] | IC50 [4, 18] | other results
Cl.Cn1nnc(-c2ccc(-c3ccc(N4C[C@H](CN)OC4=O)cc3F)cn2)n1 [AKG-3] | 169.6 | 142.4 | 0.115 µg/mL | 50 µg/mL | 50 µg/mL | 50 µg/mL | 590 g/mol PhL | 600-606 g/mol PhL | 900-930 g/mol PhL | – | – | – | – | – | MIC ([1]; Mycobacterium tuberculosis, ERDMAN, read-out: Mycobacterium tuberculosis MIC, Erdman): 0.125 µg/mL; MIC ([2]; Mycobacterium tuberculosis, H37RV, read-out: MIC (H37Rv)): 0.06 µg/mL; MIC ([2]; Mycobacterium tuberculosis, H37RV, read-out: Mycobacterium tuberculosis MIC, H37Rv): 0.06 µg/mL; IC50 ([3]; Chlorocebus sabaeus, Vero, 72 h, read-out: Cell viability IC50, VERO): 17.8 µg/mL; IC50 ([4]; Homo sapiens, HepG2, 72 h, read-out: Cell viability IC50, HepG2): 21.2 µg/mL; MIC ([7]; read-out: MRSA MIC): > 50 µg/mL; loading efficiency at or near the maximum drug load [10, 13]: at least 97.6%; Drug loading efficiency ([10]; PEG-DSG 0.5 mol%, 1 N TEA-SOS, DL0 500 g/mol PhL): 100.8; Drug loading efficiency ([10]; PEG-DSG 0.5 mol%, […] AS, DL0 250 g/mol PhL): 100.4; Drug loading efficiency ([10]; PEG-DSG 0.5 mol%, […] AS, DL0 500 g/mol PhL): 80.3; Drug loading efficiency ([10]; PEG-DSG 5 mol%, 1 N TEA-SOS, DL0 500 g/mol PhL): 107.4
CN(C)CCn1nnc(-c2ccc(-c3ccc(N4C[C@H](CO)OC4=O)cc3F)cn2)n1 [AKG-16] | – | – | 0.244 µg/mL (≈ 0.571 µM) | 1.85 µg/mL (≈ 4.33 µM) | 1.85 µg/mL (≈ 4.33 µM) | 1.85 µg/mL (≈ 4.33 µM) | 668-675 g/mol PhL | 614-619 g/mol PhL | 938-951 g/mol PhL | 0.25 µg/mL (≈ 0.585 µM) | 0.25 µg/mL (≈ 0.585 µM) | 0.25 µg/mL (≈ 0.585 µM) | 97 µg/mL (≈ 227 µM) | 91 µg/mL (≈ 213 µM) | Concentration % (w/w) of free base (visually clear solution) [11]: 30.0 % (w/w)
Cl.NCCn1nnnc1-c1ccc(-c2ccc(N3C[C@H](CO)OC3=O)cc2F)cn1 [AKG-22] | 17.2 | 57.7 | 1.18 µg/mL | 1.85 to 5.55 µg/mL | 16.7 µg/mL | 5.55 µg/mL | – | – | – | 1 µg/mL | 0.5 µg/mL | 0.5 µg/mL | 57.7 µg/mL | 17.2 µg/mL | –
